The pIC50 is the negative decadic logarithm of the IC50, by convention in mol/L. Low readings indicate a large IC50, high ones a small IC50.

We go through twelve compounds from patent publication US20170121315A1, “HETEROBICYCLICALLY SUBSTITUTED 4-OXOBUTANE ACID DERIVATIVES AND USE THEREOF” (priority 2014, published 2017).

Common to all, as to assay type: biochemical
One assay concerns the target T1, MMP-8 (Homo sapiens, UniProt P22894).
T1 construct: purchased R&D Systems 908-MP
Put plainly: In vitro MMP-8 inhibition test. To be noted: human MMP-8. A digest of the protocol:
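Recombinant APMA-activated MMP-8 (e.g. 0.5 nM final) incubated with compound in 50 mM Tris/HCl pH 7.5, 10 mM CaCl2, 150 mM NaCl, 0.05% Brij-35. Reaction started with quenched Mca-PLGL-Dpa(Dnp)-AR-NH2 substrate (e.g. 10 μM final); fluorescence (ex 320/em 410 nm) followed e.g. 120 min at 32 °C; IC50 at 50% signal.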

The target in the next assay is T2, MMP-14 (Homo sapiens, UniProt P50281).
T2 construct: purchased R&D Systems 918-MP
The experiment in a line: In vitro MMP-14 inhibition test. To be noted: human MMP-14. A digest of the protocol:
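Recombinant MMP-14, furin-activated, at e.g. 0.5 nM final in 50 mM Tris/HCl pH 7.5, 10 mM CaCl2, 150 mM NaCl, 0.05% Brij-35. Started with quenched Mca-Lys-Pro-Leu-Gly-Leu-Dpa(Dnp)-Ala-Arg-NH2 (e.g. 5 μM final); fluorescence (ex 320/em 410 nm) followed e.g. 120 min at 32 °C. IC50 at 50% signal.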

The next assay deals with T3, MMP-13 (Homo sapiens, UniProt P45452).
T3 construct: purchased R&D Systems 511-MP
Put plainly: In vitro MMP-13 inhibition test. Conditions: human MMP-13. The gist of the method: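 APMA-activated recombinant enzyme (e.g. 0.1 nM final) was tested with compounds (e.g. 1 nM–30 µM, DMSO) in 50 mM Tris/HCl pH 7.5, 10 mM CaCl2, 150 mM NaCl, 0.05% Brij-35. Mca-PLGL-Dpa(Dnp)-AR-NH2 was the substrate (e.g. 10 µM). Fluorescence (ex 320/em 410 nm) was followed e.g. 120 min at 32 °C, and IC50 was read at 50% signal.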

The target of the next assay is T4, MMP-2 (Homo sapiens, UniProt P08253).
T4 construct: purchased R&D Systems 902-MP
T4 sequence (P08253 110-660): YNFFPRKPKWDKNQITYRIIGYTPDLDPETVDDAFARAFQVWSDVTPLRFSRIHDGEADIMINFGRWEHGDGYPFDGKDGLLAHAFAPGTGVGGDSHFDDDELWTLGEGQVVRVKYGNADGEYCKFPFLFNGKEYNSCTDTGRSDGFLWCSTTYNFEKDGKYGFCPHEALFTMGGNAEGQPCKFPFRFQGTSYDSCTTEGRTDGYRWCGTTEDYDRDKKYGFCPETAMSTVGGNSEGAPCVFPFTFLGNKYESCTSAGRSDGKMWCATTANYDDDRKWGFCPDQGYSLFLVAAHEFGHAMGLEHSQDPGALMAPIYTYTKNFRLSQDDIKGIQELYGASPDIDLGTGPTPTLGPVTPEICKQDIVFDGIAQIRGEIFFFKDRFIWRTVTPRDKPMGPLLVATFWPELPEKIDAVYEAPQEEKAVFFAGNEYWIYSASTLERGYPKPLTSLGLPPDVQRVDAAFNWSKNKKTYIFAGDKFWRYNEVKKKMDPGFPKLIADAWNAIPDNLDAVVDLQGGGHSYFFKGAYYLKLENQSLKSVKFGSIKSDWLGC
Put plainly: In vitro MMP-2 inhibition test. To be noted: human MMP-2. The gist of the method:
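APMA-activated recombinant MMP-2 (final e.g. 2 nM) with compound (e.g. 1 nM to 30 μM) in Tris/HCl pH 7.5 buffer with CaCl2, NaCl, Brij-35. Reaction started with quenched Mca-PLGL-Dpa(Dnp)-AR-NH2 substrate (final e.g. 10 μM); fluorescence (ex 320/em 410 nm) followed e.g. 120 min at 32 °C; IC50 at 50% signal.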

pIC50: −log10 of the molar value.

T1 sequence (P22894 101-467): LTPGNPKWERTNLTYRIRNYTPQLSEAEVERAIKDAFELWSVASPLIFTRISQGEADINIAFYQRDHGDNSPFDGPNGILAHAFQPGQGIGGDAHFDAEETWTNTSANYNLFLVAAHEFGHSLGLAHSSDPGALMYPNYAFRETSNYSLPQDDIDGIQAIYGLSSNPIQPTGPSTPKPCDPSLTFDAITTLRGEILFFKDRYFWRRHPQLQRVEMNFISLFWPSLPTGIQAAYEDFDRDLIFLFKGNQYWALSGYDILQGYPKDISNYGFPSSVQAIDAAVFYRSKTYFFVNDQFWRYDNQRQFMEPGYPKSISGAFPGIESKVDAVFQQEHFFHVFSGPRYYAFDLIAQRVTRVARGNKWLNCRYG

Regarding `CCCCCCCOc1ccc2cc(C(=O)CC(CCn3nnc4ccccc4c3=O)C(=O)O)oc2c1` (single isomer, unassigned; (+)) [Example 69, (+)-4-[6-(Heptyloxy)-1-benzofur-2-yl]-4-oxo-2-[2-(4-oxo-1,2,3-benzotriazin-3(4H)-yl)ethyl]butanoic acid acid], the pIC50 was under 4.40 on MMP-8, under 4.40 on MMP-14, 5.44 against MMP-13 and 5.54 at MMP-2.
On to `O=C(CC(CCn1nnc2ccccc2c1=O)C(=O)O)c1cc2ccc(OCCc3ccccc3)cc2s1` (racemic) [Example 114, (+/−)-4-Oxo-2-[2-(4-oxo-1,2,3-benzotriazin-3(4H)-yl)ethyl]-4-[6-(2-phenylethoxy)-1-benzothiophen-2-yl]butanoic acid], for which the pIC50 on MMP-8 is 5.49; against MMP-14, 5.68; against MMP-13, 6.60; against MMP-2, 7.08.
In the same order, the values of `O=C(O)[C@H]1[C@H](Cn2nnc3ccc(C(F)(F)F)cc3c2=O)CC[C@@H]1C(=O)c1cc2cc(OCCc3ccccc3)ccc2o1` (racemic) [Example 157, (+/−)-(1RS,2SR,5RS)-2-{[4-Oxo-6-(trifluoromethyl)-1,2,3-benzotriazin-3(4H)-yl]methyl}-5-{[5-(2-phenylethoxy)-1-benzofur-2-yl]carbonyl}cyclopentanecarboxylic acid (racemate)] are 6.82, 6.15, 6.54 and 6.06.
Taken in the same sequence, the figures for `O=C(CC(CCn1nnc2ccccc2c1=O)C(=O)O)c1cc2ccc(OCCc3ccccc3)cc2o1` (racemic) [Example 73, (+/−)-4-Oxo-2-[2-(4-oxo-1,2,3-benzotriazin-3(4H)-yl)ethyl]-4-[6-(2-phenylethoxy)-1-benzofur-2-yl]butanoic acid] were under 4.40, under 4.40, 5.33 and 5.89.
As to `O=C(CC(CCn1nnc2ccccc2c1=O)C(=O)O)c1noc2cc(OCC3CC3)ccc12` (racemic) [Example 150, (+/−)-4-[6-(Cyclopropylmethoxy)-1,2-benzoxazol-3-yl]-4-oxo-2-[2-(4-oxo-1,2,3-benzotriazin-3(4H)-yl)ethyl]butanoic acid], the pIC50 on MMP-8 was 6.40; at MMP-14 it was 6.05; on MMP-13 it was 5.62; at MMP-2 it was 6.29.
Taken in the same sequence, the figures for `O=C(CC(CCn1nnc2ccccc2c1=O)C(=O)O)c1noc2cc(OCc3ccc(F)cc3)ccc12` (racemic) [Example 136, (+/−)-4-{6-[(4-Fluorobenzyl)oxy]-1,2-benzoxazol-3-yl}-4-oxo-2-[2-(4-oxo-1,2,3-benzotriazin-3(4H)-yl)ethyl]butanoic acid] were 5.92, 5.31, 6.01 and 6.49.
In the same order, the values of `CCCCCCCOc1ccc2oc(C(=O)CC(CCn3nnc4ccccc4c3=O)C(=O)O)cc2c1` (racemic) [Example 31, (+/−)-4-[5-(Heptyloxy)-1-benzofur-2-yl]-4-oxo-2-[2-(4-oxo-1,2,3-benzotriazin-3(4H)-yl)ethyl]butanoic acid] are 4.46, under 4.40, 5.29 and 5.36.
As to `O=C(CC(CCn1nnc2ccccc2c1=O)C(=O)O)c1noc2cc(OCCc3ccccc3)ccc12` (racemic) [Example 144, (+/−)-4-Oxo-2-[2-(4-oxo-1,2,3-benzotriazin-3(4H)-yl)ethyl]-4-[6-(2-phenylethoxy)-1,2-benzoxazol-3-yl]butanoic acid], the pIC50 against MMP-8 is 5.60; on MMP-14, 5.60; at MMP-13, 5.80; against MMP-2, 6.14.
`O=C(CC(CCn1nnc2ccccc2c1=O)C(=O)O)c1noc2cc(OCc3ccccc3)ccc12` (racemic) [Example 145, (+/−)-4-[6-(Benzyloxy)-1,2-benzoxazol-3-yl]-4-oxo-2-[2-(4-oxo-1,2,3-benzotriazin-3(4H)-yl)ethyl]butanoic acid]: the pIC50 against MMP-8 was 5.55; against MMP-14, 5.40; against MMP-13, 5.82; against MMP-2 it was 6.37.
In the same order, the values of `O=C(CC(CCn1nnc2ccccc2c1=O)C(=O)O)c1cc2cc(OCCC3CCOCC3)ccc2o1` (racemic) [Example 6, (+/−)-4-Oxo-2-[2-(4-oxo-1,2,3-benzotriazin-3(4H)-yl)ethyl]-4-{5-[2-(tetrahydro-2H-pyran-4-yl)ethoxy]-1-benzofur-2-yl}butanoic acid] are 5.41, 4.43, 6.14 and 6.37.
Taken in the same sequence, the figures for `CCCCCOc1ccc2c(C(=O)CC(CCn3nnc4ccccc4c3=O)C(=O)O)noc2c1` (racemic) [Example 140, (+/−)-4-Oxo-2-[2-(4-oxo-1,2,3-benzotriazin-3(4H)-yl)ethyl]-4-[6-(pentyloxy)-1,2-benzoxazol-3-yl]butanoic acid] were 6.24, 5.47, 6.48 and 7.02.
Taken in the same sequence, the figures for `O=C(CC(CCn1nnc2ccccc2c1=O)C(=O)O)c1cc2cc(OCc3ccc(C(F)(F)F)cc3)ccc2o1` (racemic) [Example 44, (+/−)-4-Oxo-2-[2-(4-oxo-1,2,3-benzotriazin-3(4H)-yl)ethyl]-4-(5-{[4-(trifluoromethyl)benzyl]oxy}-1-benzofur-2-yl)butanoic acid] were 4.55, 4.89, 5.68 and under 4.40.
